In paper PMC7413254 (Nature Communications, 2020):

Tests used:
non-expressing oocytes [1] = type: cell-based, Xenopus laevis; conditions: non-expressing oocytes; [test solute]i = 45 mM (30 mM for some solutes due to solubility); total [3H]CQ transport, normalised to the oocyte type control
In short: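 Oocytes (ten per treatment, ≥4 independent frogs/days) were preloaded by injecting VF-6 in 25 nL ND96 at pH 5.0, 5.5, 6.0 or 7.0, or Na^+-free choline buffer, then uptake run 1.5 h, 27.5 °C, ND96 pH 5.5 by default. Internal concentrations assumed ~400 nL oocyte volume.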

PfCRT^Dd2 [2] = target: T1, PfCRT^Dd2 (Plasmodium falciparum, UniProt Q9N623, A220S/I356T/K76T/M74I/N326S/N75E/Q271E/R371I); assay: [3H]CQ uptake into Xenopus oocytes, cis-inhibition by unlabelled solute; type: cell-based; conditions: PfCRTDd2 oocytes, background [3H]CQ accumulation subtracted, normalised to oocyte type control
T1 sequence (Q9N623 whole entry A220S/I356T/K76T/M74I/N326S/N75E/Q271E/R371I): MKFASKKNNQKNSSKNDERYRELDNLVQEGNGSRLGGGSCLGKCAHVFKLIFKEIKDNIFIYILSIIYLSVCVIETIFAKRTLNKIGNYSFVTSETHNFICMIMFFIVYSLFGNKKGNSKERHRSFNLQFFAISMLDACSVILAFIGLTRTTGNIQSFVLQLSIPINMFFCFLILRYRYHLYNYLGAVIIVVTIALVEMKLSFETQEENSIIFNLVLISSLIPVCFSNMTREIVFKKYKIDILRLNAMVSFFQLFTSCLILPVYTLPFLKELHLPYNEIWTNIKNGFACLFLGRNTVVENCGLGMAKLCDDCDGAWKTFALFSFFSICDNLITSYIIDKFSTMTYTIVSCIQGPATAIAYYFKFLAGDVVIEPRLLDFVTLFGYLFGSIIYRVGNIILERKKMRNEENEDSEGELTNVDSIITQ
In short: (§1)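 Radioactivity accumulated per oocyte, read by liquid scintillation after 10% SDS lysis, served as the uptake measure. Incubations ran 1.5 h at 27.5 °C in ND96 at pH 5.5, matching digestive-vacuole acidity.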

PfCRT^Ecu1110 [3] = target: T2, PfCRT^Ecu1110 (Plasmodium falciparum, UniProt Q9N623, A220S/I356L/K76T/N326D); assay: as above; type: cell-based; conditions: for Uptake of [3H]CQ (% PfCRTEcu1110 control), cis-inhibition / PfCRT-mediated [3H]CQ transport, cis-inhibition (% PfCRTEcu1110 control): PfCRTEcu1110 oocytes; for Uptake of [3H]CQ (% PfCRTEcu1110 control), cis-inhibition: total [3H]CQ transport, normalised to the oocyte type control; for PfCRT-mediated [3H]CQ transport, cis-inhibition (% PfCRTEcu1110 control): background [3H]CQ accumulation subtracted, normalised to oocyte type control; for [3H]CQ transport (% PfCRTEcu1110 control), cis-inhibition, PfCRTEcu1110: PfCRT-mediated component (background subtracted), sheet title says normalised to PfCRTDd2 control, mean ± SEM, SEM
T2 sequence (Q9N623 whole entry A220S/I356L/K76T/N326D): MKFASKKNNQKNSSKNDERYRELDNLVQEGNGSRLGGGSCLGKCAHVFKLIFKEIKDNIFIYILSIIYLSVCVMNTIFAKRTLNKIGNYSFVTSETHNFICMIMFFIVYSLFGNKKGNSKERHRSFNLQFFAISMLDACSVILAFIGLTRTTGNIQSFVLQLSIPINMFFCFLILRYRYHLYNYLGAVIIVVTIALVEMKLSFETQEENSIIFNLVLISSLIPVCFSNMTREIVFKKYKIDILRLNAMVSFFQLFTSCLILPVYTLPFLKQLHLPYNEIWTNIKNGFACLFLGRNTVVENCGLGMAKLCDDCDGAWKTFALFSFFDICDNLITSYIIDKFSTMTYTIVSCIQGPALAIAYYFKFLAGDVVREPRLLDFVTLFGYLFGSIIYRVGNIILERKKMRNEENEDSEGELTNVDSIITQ
In short: as §1

PfCRT^3D7 [4] = target: T3, PfCRT^3D7 (Plasmodium falciparum, UniProt Q8IBZ9); assay: cell-based; type: cell-based; conditions: PfCRT3D7 oocytes, total [3H]CQ transport, normalised to the oocyte type control
T3 sequence (Q8IBZ9 59-398): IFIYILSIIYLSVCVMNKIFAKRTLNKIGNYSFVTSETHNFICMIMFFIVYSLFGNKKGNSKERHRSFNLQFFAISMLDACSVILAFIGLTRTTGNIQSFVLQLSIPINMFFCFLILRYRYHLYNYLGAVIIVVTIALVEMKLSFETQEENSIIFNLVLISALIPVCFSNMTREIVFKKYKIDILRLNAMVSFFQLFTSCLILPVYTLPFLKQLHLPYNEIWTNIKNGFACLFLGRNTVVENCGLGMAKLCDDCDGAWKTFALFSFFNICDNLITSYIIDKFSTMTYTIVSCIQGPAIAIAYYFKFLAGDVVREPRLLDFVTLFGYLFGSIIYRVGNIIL
In short: as §1

PfNT1 = target: T4, PfNT1 (Plasmodium falciparum, UniProt Q8IDM6); assay: cell-based; type: cell-based; conditions: PfNT1 oocytes, total [3H]CQ transport, normalised to the oocyte type control
T4 construct: expressed in transfected cells; host or cells: Xenopus laevis oocytes (stage V-VI), cRNA-injected
T4 sequence (Q8IDM6 whole entry): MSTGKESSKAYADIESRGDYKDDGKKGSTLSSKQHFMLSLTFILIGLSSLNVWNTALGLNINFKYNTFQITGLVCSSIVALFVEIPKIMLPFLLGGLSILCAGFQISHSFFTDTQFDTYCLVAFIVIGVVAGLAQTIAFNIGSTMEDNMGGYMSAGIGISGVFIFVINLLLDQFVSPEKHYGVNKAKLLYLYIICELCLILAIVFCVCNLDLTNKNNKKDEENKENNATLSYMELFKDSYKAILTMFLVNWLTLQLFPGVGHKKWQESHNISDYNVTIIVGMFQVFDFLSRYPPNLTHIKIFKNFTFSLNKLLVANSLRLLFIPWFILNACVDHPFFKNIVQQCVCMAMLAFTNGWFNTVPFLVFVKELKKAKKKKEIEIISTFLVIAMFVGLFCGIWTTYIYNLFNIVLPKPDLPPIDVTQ
In short: (§2)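 Transport measured in Xenopus oocytes expressing the transporters, 1.5 h at 27.5 °C in ND96 pH 5.5 unless noted. For trans-stimulation, VF-6 injected in 25 nL ND96 at pH 5.0–7.0 or Na^+-free (choline) buffer; intracellular levels based on ~400 nL oocyte volume. Ten oocytes per treatment, ≥4 experiments.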

PfCRT^3D7 [5] = target: T3, PfCRT^3D7; assay: cell-based; type: cell-based; conditions: PfCRT3D7 oocytes; for Uptake of [3H]CQ (% PfCRT3D7 control), trans-stimulation: total [3H]CQ transport, normalised to the oocyte type control; for PfCRT-mediated [3H]CQ transport, trans-stimulation (% PfCRT3D7 control): normalised to oocyte type control
In short: as §2

PfCRT^Dd2 [6] = target: T1, PfCRT^Dd2; assay: cell-based; type: cell-based; conditions: for Uptake of [3H]CQ (% PfCRTDd2 control), trans-stimulation / PfCRT-mediated [3H]CQ transport, trans-stimulation (% PfCRTDd2 control): PfCRTDd2 oocytes; for Uptake of [3H]CQ (% PfCRTDd2 control), trans-stimulation: total [3H]CQ transport, normalised to the oocyte type control; for PfCRT-mediated [3H]CQ transport, trans-stimulation (% PfCRTDd2 control): normalised to oocyte type control; for [3H]CQ transport (% PfCRTDd2 control), trans-stimulation, PfCRTDd2: PfCRT-mediated component (background subtracted), mean ± SEM, SEM
In short: as §2

PfCRT^Ecu1110 [7] = target: T2, PfCRT^Ecu1110; assay: cell-based; type: cell-based; conditions: for Uptake of [3H]CQ (% PfCRTEcu1110 control), trans-stimulation / PfCRT-mediated [3H]CQ transport, trans-stimulation (% PfCRTEcu1110 control): PfCRTEcu1110 oocytes; for Uptake of [3H]CQ (% PfCRTEcu1110 control), trans-stimulation: total [3H]CQ transport, normalised to the oocyte type control; for PfCRT-mediated [3H]CQ transport, trans-stimulation (% PfCRTEcu1110 control): normalised to oocyte type control; for [3H]CQ transport (% PfCRTDd2 control), trans-stimulation, PfCRTEcu1110: PfCRT-mediated component (background subtracted), sheet title says normalised to PfCRTDd2 control, mean ± SEM, SEM
In short: as §2

non-expressing oocytes [8] = assay: cells; type: cell-based, Xenopus laevis; conditions: non-expressing oocytes, total [3H]CQ transport, normalised to the oocyte type control
In short: as §1

[9] = [test solute]i = 45 mM (30 mM for some solutes due to solubility)
[10] = [test solute]i = 5 mM (intracellular)
[11] = [test solute]i = 45 mM (intracellular; 30 mM for some solutes due to solubility)
[12] = [test solute]i = 5 mM (injected)

PVQA [PA-4]
Uptake of [3H]CQ (% non-expressing oocyte control), trans-stimulation (non-expressing oocytes [1]): 100 ± 2.6 % non-expressing oocyte control | PfCRT-mediated [3H]CQ transport, cis-inhibition (% PfCRTDd2 control) (PfCRT^Dd2 [2]; [test solute] = 0.5 mM): 51 ± 3.0 % PfCRTDd2 control | PfCRT-mediated [3H]CQ transport, cis-inhibition (% PfCRTDd2 control) (PfCRT^Dd2 [2]; [test solute] = 1 mM): 41 ± 2.9 % PfCRTDd2 control | PfCRT-mediated [3H]CQ transport, cis-inhibition (% PfCRTDd2 control) (PfCRT^Dd2 [2]; [test solute] = 2 mM): 31 ± 1.2 % PfCRTDd2 control | Uptake of [3H]CQ (% PfCRTEcu1110 control), cis-inhibition (PfCRT^Ecu1110 [3]; [test solute] = 0.5 mM): 65 ± 2.9 % PfCRTEcu1110 control | Uptake of [3H]CQ (% PfCRTEcu1110 control), cis-inhibition (PfCRT^Ecu1110 [3]; [test solute] = 1 mM): 59 ± 3.6 % PfCRTEcu1110 control | Uptake of [3H]CQ (% PfCRTEcu1110 control), cis-inhibition (PfCRT^Ecu1110 [3]; [test solute] = 2 mM): 43 ± 2.5 % PfCRTEcu1110 control | PfCRT-mediated [3H]CQ transport, cis-inhibition (% PfCRTEcu1110 control) (PfCRT^Ecu1110 [3]; [test solute] = 0.5 mM): 61 ± 0.4 % PfCRTEcu1110 control | PfCRT-mediated [3H]CQ transport, cis-inhibition (% PfCRTEcu1110 control) (PfCRT^Ecu1110 [3]; [test solute] = 1 mM): 52 ± 2.6 % PfCRTEcu1110 control | PfCRT-mediated [3H]CQ transport, cis-inhibition (% PfCRTEcu1110 control) (PfCRT^Ecu1110 [3]; [test solute] = 2 mM): 39 ± 2.1 % PfCRTEcu1110 control | [3H]CQ transport (% PfCRTEcu1110 control), cis-inhibition, PfCRTEcu1110 (PfCRT^Ecu1110 [3]; [test solute] = 1 mM): 16 ± 0.1 % PfCRTEcu1110 control | [3H]CQ transport (% PfCRTEcu1110 control), cis-inhibition, PfCRTEcu1110 (PfCRT^Ecu1110 [3]; [test solute] = 2 mM): 12 ± 0.2 % PfCRTEcu1110 control | Uptake of [3H]CQ (% PfCRT3D7 control), cis-inhibition (PfCRT^3D7 [4]; [test solute] = 0.5 mM): 99 ± 5.3 % PfCRT3D7 control | Uptake of [3H]CQ (% PfCRT3D7 control), cis-inhibition (PfCRT^3D7 [4]; [test solute] = 1 mM): 99 ± 4.8 % PfCRT3D7 control | Uptake of [3H]CQ (% PfCRT3D7 control), cis-inhibition (PfCRT^3D7 [4]; [test solute] = 2 mM): 99 ± 5.7 % PfCRT3D7 control | Uptake of [3H]CQ (% PfNT1 control), trans-stimulation (PfNT1; [test solute]i = 5 mM): 96 ± 3.5 % PfNT1 control | Uptake of [3H]CQ (% PfNT1 control), trans-stimulation (PfNT1; [9]): 98 ± 3.4 % PfNT1 control | Uptake of [3H]CQ (% PfCRT3D7 control), trans-stimulation (PfCRT^3D7 [5]; [test solute]i = 5 mM): 130 ± 4.2 % PfCRT3D7 control | Uptake of [3H]CQ (% PfCRT3D7 control), trans-stimulation (PfCRT^3D7 [5]; [9]): 149 ± 5.8 % PfCRT3D7 control | PfCRT-mediated [3H]CQ transport, trans-stimulation (% PfCRT3D7 control) (PfCRT^3D7 [5]; [10]): 124 ± 3.2 % PfCRT3D7 control | PfCRT-mediated [3H]CQ transport, trans-stimulation (% PfCRT3D7 control) (PfCRT^3D7 [5]; [11]): 141 ± 4.0 % PfCRT3D7 control | Uptake of [3H]CQ (% PfCRTDd2 control), trans-stimulation (PfCRT^Dd2 [6]; [test solute]i = 5 mM): 98 ± 2.2 % PfCRTDd2 control | Uptake of [3H]CQ (% PfCRTDd2 control), trans-stimulation (PfCRT^Dd2 [6]; [9]): 115 ± 1.1 % PfCRTDd2 control | PfCRT-mediated [3H]CQ transport, trans-stimulation (% PfCRTDd2 control) (PfCRT^Dd2 [6]; [10]): 96 ± 3.2 % PfCRTDd2 control | PfCRT-mediated [3H]CQ transport, trans-stimulation (% PfCRTDd2 control) (PfCRT^Dd2 [6]; [11]): 110 ± 0.9 % PfCRTDd2 control | [3H]CQ transport (% PfCRTDd2 control), trans-stimulation, PfCRTDd2 (PfCRT^Dd2 [6]; [12]): 96 ± 3.2 % PfCRTDd2 control | [3H]CQ transport (% PfCRTDd2 control), trans-stimulation, PfCRTDd2 (PfCRT^Dd2 [6]; [9]): 110 ± 0.9 % PfCRTDd2 control | Uptake of [3H]CQ (% PfCRTEcu1110 control), trans-stimulation (PfCRT^Ecu1110 [7]; [test solute]i = 5 mM): 122 ± 3.0 % PfCRTEcu1110 control | Uptake of [3H]CQ (% PfCRTEcu1110 control), trans-stimulation (PfCRT^Ecu1110 [7]; [9]): 133 ± 3.5 % PfCRTEcu1110 control | PfCRT-mediated [3H]CQ transport, trans-stimulation (% PfCRTEcu1110 control) (PfCRT^Ecu1110 [7]; [10]): 117 ± 2.4 % PfCRTEcu1110 control | PfCRT-mediated [3H]CQ transport, trans-stimulation (% PfCRTEcu1110 control) (PfCRT^Ecu1110 [7]; [11]): 127 ± 1.9 % PfCRTEcu1110 control | [3H]CQ transport (% PfCRTDd2 control), trans-stimulation, PfCRTEcu1110 (PfCRT^Ecu1110 [7]; [12]): 35 ± 1.3 % PfCRTEcu1110 control | [3H]CQ transport (% PfCRTDd2 control), trans-stimulation, PfCRTEcu1110 (PfCRT^Ecu1110 [7]; [9]): 38 ± 1.1 % PfCRTEcu1110 control | Uptake of [3H]CQ (% non-expressing oocyte control), cis-inhibition (non-expressing oocytes [8]; [test solute] = 0.5 mM): 98 ± 3.0 % non-expressing oocyte control | Uptake of [3H]CQ (% non-expressing oocyte control), cis-inhibition (non-expressing oocytes [8]; [test solute] = 1 mM): 100 ± 4.7 % non-expressing oocyte control | Uptake of [3H]CQ (% non-expressing oocyte control), cis-inhibition (non-expressing oocytes [8]; [test solute] = 2 mM): 98 ± 3.9 % non-expressing oocyte control
